Results taken from PubChem BioAssay AID248 (DTP/NCI, 2004).
Values joined by “and” are separate entries in the source; they are usually repeats but may differ in a detail not shown here. Equal entries are not always repeated. Inconclusive results and toxic doses are left out. Cut-off read from the data, not from the text of the source: active = T/C of 150% or more; inactive = T/C below 125%.

Test system: L1210 leukemia ip in BDF1 mice, survival T/C
Test: NCI In Vivo Anticancer Drug Screen. Data for tumor model L1210 Leukemia (intraperitoneal) in B6D2F1 (BDF1) mice
Settings: endpoint: mean survival time, higher = longer survival
Procedure, shortened: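 Mice bearing the transplanted tumor received compound or vehicle. Survival of the treated group was divided by that of the vehicle-treated control group to give the ratio.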

[1] = dose: 100.0 mg/kg/injection, schedule: Q04DX003 (ip), vehicle: saline with Tween-80
[2] = dose: 200.0 mg/kg/injection, schedule: Q04DX003 (ip), vehicle: saline with Tween-80
[3] = dose: 400.0 mg/kg/injection, schedule: Q04DX003 (ip), vehicle: saline with Tween-80
[4] = dose: 100.0 mg/kg/injection, schedule: Q04DX003 (ip), vehicle: Klucel (hydroxypropylcellulose) (HPC)
[5] = dose: 200.0 mg/kg/injection, schedule: Q04DX003 (ip), vehicle: Klucel (hydroxypropylcellulose) (HPC)
[6] = dose: 400.0 mg/kg/injection, schedule: Q04DX003 (ip), vehicle: Klucel (hydroxypropylcellulose) (HPC)
[7] = dose: 25.0 mg/kg/injection, schedule: Q01DX009 (ip), vehicle: saline
[8] = dose: 50.0 mg/kg/injection, schedule: Q01DX009 (ip), vehicle: saline
[9] = dose: 100.0 mg/kg/injection, schedule: Q04DX003 (ip), vehicle: saline
[10] = dose: 200.0 mg/kg/injection, schedule: Q04DX003 (ip), vehicle: saline
[11] = dose: 75.0 mg/kg/injection, schedule: Q01DX009 (ip), vehicle: Klucel (hydroxypropylcellulose) (HPC)
[12] = dose: 150.0 mg/kg/injection, schedule: Q01DX009 (ip), vehicle: Klucel (hydroxypropylcellulose) (HPC)
[13] = dose: 300.0 mg/kg/injection, schedule: Q01DX009 (ip), vehicle: Klucel (hydroxypropylcellulose) (HPC)
[14] = dose: 100.0 mg/kg/injection, schedule: Q01DX009 (ip), vehicle: saline
[15] = dose: 200.0 mg/kg/injection, schedule: Q01DX009 (ip), vehicle: saline
[16] = dose: 400.0 mg/kg/injection, schedule: Q01DX009 (ip), vehicle: saline
[17] = dose: 400.0 mg/kg/injection, schedule: Q04DX003 (ip), vehicle: saline
[18] = dose: 100.0 mg/kg/injection, schedule: Q01DX009 (ip), vehicle: Klucel (hydroxypropylcellulose) (HPC)
[19] = dose: 100.0 mg/kg/injection, schedule: Q01DX001 (ip), vehicle: saline
[20] = dose: 200.0 mg/kg/injection, schedule: Q01DX001 (ip), vehicle: saline
[21] = dose: 400.0 mg/kg/injection, schedule: Q01DX001 (ip), vehicle: saline
[22] = dose: 200.0 mg/kg/injection, schedule: Q01DX009 (ip), vehicle: Klucel (hydroxypropylcellulose) (HPC)
[23] = dose: 400.0 mg/kg/injection, schedule: Q01DX009 (ip), vehicle: Klucel (hydroxypropylcellulose) (HPC)

Measured: T/C

CN(C)C1C(=O)C(C(=O)NCNC(CCS)C(=O)O)=C(O)C2(O)C(=O)C3=C(O)c4c(O)cccc4C(C)(O)C3CC12 (stereo unspecified)
inactive: dose: 20.0 mg/kg/injection, schedule: Q01DX Z (ip), vehicle: saline 104 % of control | dose: 40.0 mg/kg/injection, schedule: Q01DX Z (ip), vehicle: saline 98 % of control | dose: 80.0 mg/kg/injection, schedule: Q01DX Z (ip), vehicle: saline 96 % of control and 100 % of control | dose: 160.0 mg/kg/injection, schedule: Q01DX Z (ip), vehicle: saline 98 % of control and 101 % of control | dose: 320.0 mg/kg/injection, schedule: Q01DX Z (ip), vehicle: saline 100 % of control

CSC(SC)=C(C#N)C#N
inactive: dose: 25.0 mg/kg/injection, schedule: Q04DX002 (ip), vehicle: saline 101 % of control

O=[N+]([O-])c1ccc(/C=C\c2ccc(Cl)cc2S(=O)(=O)F)c(Cl)c1
inactive: dose: 100.0 mg/kg/injection, schedule: Q01DX009 (ip), vehicle: saline sonified 97 % of control | [1] 102 % of control | dose: 200.0 mg/kg/injection, schedule: Q01DX009 (ip), vehicle: saline sonified 97 % of control | [2] 96 % of control | dose: 400.0 mg/kg/injection, schedule: Q01DX009 (ip), vehicle: saline sonified 96 % of control | [3] 100 % of control

CCCCCCCNC(C)(C)C(SSSC(c1ccc(Cl)cc1)C(C)(C)NCCCCCCC)c1ccc(Cl)cc1 (stereo unspecified)
inactive: [4] 101 % of control | [5] 101 % of control | [6] 98 % of control

CN(C)C(c1ccccc1)C(O)c1ccccc1 (stereo unspecified)
inactive: dose: 75.0 mg/kg/injection, schedule: Q01DX001 (ip), vehicle: saline 94 % of control and 98 % of control | dose: 150.0 mg/kg/injection, schedule: Q01DX001 (ip), vehicle: saline 97 % of control and 102 % of control | dose: 300.0 mg/kg/injection, schedule: Q01DX001 (ip), vehicle: saline 89 % of control and 96 % of control

CN(C)C(C)(C)CNc1ccc(C(=O)O)cc1
inactive: dose: 6.0 mg/kg/injection, schedule: Q01DX009 (ip), vehicle: saline 96 % of control | dose: 12.0 mg/kg/injection, schedule: Q01DX009 (ip), vehicle: saline 97 % of control | [7] 100 % of control and 98 % of control | [8] 109 % of control | [9] 98 % of control | [10] 101 % of control

COC1OC(COC(C)=O)C(OC(C)=O)C2C1N2C(N)=S (stereo unspecified)
inactive: dose: 100.0 mg/kg/injection, schedule: Q04DX002 (ip), vehicle: saline 110 % of control | dose: 400.0 mg/kg/injection, schedule: Q04DX002 (ip), vehicle: saline 113 % of control

CCOC(CCc1c(-c2ccccc2)nc(N)[nH]c1=O)OCC
inactive: dose: 100.0 mg/kg/injection, schedule: Q01DX009 (ip), vehicle: other 110 % of control | dose: 200.0 mg/kg/injection, schedule: Q01DX009 (ip), vehicle: other 102 % of control | dose: 400.0 mg/kg/injection, schedule: Q01DX009 (ip), vehicle: other 93 % of control

O=C(/C=C/c1ccccc1)NN1CCOCC1
inactive: [11] 92 % of control | [12] 108 % of control | [13] 115 % of control

CCOC1(OCC)CC2(Cl)C(Cl)=C(Cl)C(Cl)(C3C1CC3(OCC)OCC)C2(OC)OC (stereo unspecified)
inactive: [11] 103 % of control | dose: 100.0 mg/kg/injection, schedule: Q01DX001 (ip), vehicle: Klucel (hydroxypropylcellulose) (HPC) 95 % of control | [12] 107 % of control | dose: 200.0 mg/kg/injection, schedule: Q01DX001 (ip), vehicle: Klucel (hydroxypropylcellulose) (HPC) 103 % of control | [13] 100 % of control | dose: 400.0 mg/kg/injection, schedule: Q01DX001 (ip), vehicle: Klucel (hydroxypropylcellulose) (HPC) 97 % of control

CCCCCC(=O)NCC(=O)O
inactive: [1] 94 % of control | [2] 97 % of control | [3] 94 % of control

CC(C)/C(=C\c1ccccc1)C(=O)c1ccccc1
inactive: [1] 104 % of control | [2] 110 % of control

CNCCN(C)Cc1ccccc1
inactive: [7] 101 % of control | dose: 25.0 mg/kg/injection, schedule: Q04DX003 (ip), vehicle: saline 106 % of control | [8] 97 % of control | dose: 50.0 mg/kg/injection, schedule: Q04DX003 (ip), vehicle: saline 98 % of control | [14] 98 % of control | [9] 98 % of control and 91 % of control

CNC(=O)NCCOC(=O)NC
inactive: [14] 94 % of control | [9] 96 % of control | [15] 98 % of control | [10] 101 % of control | [16] 107 % of control | [17] 101 % of control

NC(=O)CNC(=O)C(CSCc1ccccc1)NC(=O)OCc1ccccc1 (stereo unspecified)
inactive: dose: 25.0 mg/kg/injection, schedule: Q01DX009 (ip), vehicle: Klucel (hydroxypropylcellulose) (HPC) 89 % of control | dose: 50.0 mg/kg/injection, schedule: Q01DX009 (ip), vehicle: Klucel (hydroxypropylcellulose) (HPC) 93 % of control | [18] 94 % of control | [4] 90 % of control

CC(NC(=O)OCc1ccccc1)C(=O)ON1C(=O)CCC1=O (stereo unspecified)
inactive: [19] 97 % of control | [14] 95 % of control | [9] 96 % of control | [20] 102 % of control | [15] 93 % of control | [10] 94 % of control | [21] 97 % of control | [16] 88 % of control | [17] 96 % of control

CN(C)CCCn1c2c(c3ccccc31)CCCCCC2
inactive: dose: 6.25 mg/kg/injection, schedule: Q01DX009 (ip), vehicle: saline 96 % of control | dose: 12.5 mg/kg/injection, schedule: Q01DX009 (ip), vehicle: saline 93 % of control | [7] 98 % of control | [8] 102 % of control

CC(C)OB(OC(C)C)OC(C)C
inactive: [18] 103 % of control | [4] 104 % of control | [22] 103 % of control | [5] 95 % of control | [23] 102 % of control | [6] 100 % of control

C1CCC(CCC(CCCC2CCCC2)CCC2CCCCC2)CC1
inactive: dose: 100.0 mg/kg/injection, schedule: Q01DX001 (ip), vehicle: saline with Tween-80 94 % of control | dose: 200.0 mg/kg/injection, schedule: Q01DX001 (ip), vehicle: saline with Tween-80 94 % of control | dose: 400.0 mg/kg/injection, schedule: Q01DX001 (ip), vehicle: saline with Tween-80 102 % of control

O=C(N/N=C/c1ccc2c(c1)OCO2)c1ccccc1
inactive: [18] 93 % of control | [4] 101 % of control | [22] 96 % of control | [5] 104 % of control | [23] 86 % of control | [6] 98 % of control

O=C(NCCBr)Nc1ccc2c(c1)OCO2
inactive: [18] 94 % of control | [4] 111 % of control | [22] 102 % of control | [5] 101 % of control | [23] 96 % of control | [6] 108 % of control

CC(C)C(O)CC(=O)NN (stereo unspecified)
inactive: [19] 98 % of control | [20] 110 % of control | [21] 102 % of control
